Experimental data reported in ChEMBL document CHEMBL4699440, “Comprehensive review on the anti-bacterial activity of 1,2,3-triazole hybrids” (Eur J Med Chem, 2019).
In brackets after ≈: the same amount, converted by molar mass.

Tests used:
Format in all cases: functional
[1] = test system: Escherichia coli; experiment: Antibacterial activity against ESBL-producing Escherichia coli ATCC 25925 by CLSI-based broth dilution method
[2] = test system: Enterococcus faecium; experiment: Antibacterial activity against vancomycin-resistant Enterococcus faecium by CLSI-based broth dilution method; details: time 24 hrs
[3] = test system: Pseudomonas aeruginosa; experiment: Antibacterial activity against Pseudomonas aeruginosa ATCC 27853 by CLSI-based broth dilution method
[4] = test system: Staphylococcus aureus; experiment: Antibacterial activity against methicillin-resistant Staphylococcus aureus ATCC 25923 by CLSI-based broth dilution method
[5] = test system: Klebsiella pneumoniae; experiment: Antibacterial activity against Klebsiella pneumoniae ATCC 27736 by CLSI-based broth dilution method
[6] = test system: Staphylococcus aureus; experiment: Antibacterial activity against methicillin-sensitive Staphylococcus aureus by CLSI-based broth dilution method
[7] = test system: Pseudomonas aeruginosa; experiment: Antibacterial activity against Pseudomonas aeruginosa ATCC 27853 incubated for 16 to 18 hrs by serial plate dilution method; details: time hrs 16-18
[8] = test system: Aspergillus fumigatus; experiment: Antifungal activity against Aspergillus fumigatus NCIM 902 incubated for 3 to 4 days by serial plate dilution method; details: time day 3-4
[9] = test system: Aspergillus flavus; experiment: Antifungal activity against Aspergillus flavus NCIM 524 incubated for 3 to 4 days by serial plate dilution method; details: time day 3-4
[10] = test system: Klebsiella pneumoniae; experiment: Antibacterial activity against Klebsiella pneumoniae incubated for 16 to 18 hrs by serial plate dilution method; details: time hrs 16-18
[11] = test system: Escherichia coli; experiment: Antibacterial activity against Escherichia coli ATCC 25922 incubated for 16 to 18 hrs by serial plate dilution method; details: time hrs 16-18
[12] = test system: Staphylococcus aureus; experiment: Antibacterial activity against methicillin-resistant Staphylococcus aureus ATCC 25923 incubated for 16 to 18 hrs by serial plate dilution method; details: time hrs 16-18
[13] = test system: Trichophyton mentagrophytes; experiment: Antifungal activity against Trichophyton mentagrophytes incubated for 3 to 4 days by serial plate dilution method; details: time day 3-4
[14] = test system: Talaromyces marneffei; experiment: Antifungal activity against Penicillium marneffei incubated for 3 to 4 days by serial plate dilution method; details: time day 3-4
[15] = test system: Bacillus cereus; experiment: Antibacterial activity against Bacillus cereus MTCC 430 incubated for 24 hrs by macrodilution tube method
[16] = test system: Staphylococcus aureus; experiment: Antibacterial activity against Staphylococcus aureus MTCC 96 incubated for 24 hrs by macrodilution tube method
[17] = test system: Pseudomonas fluorescens; experiment: Antibacterial activity against Pseudomonas fluorescens NCIM 2173 incubated for 24 hrs
[18] = test system: Sphingomonas paucimobilis; experiment: Antibacterial activity against Flavobacterium devorans ATCC 10829 incubated for 24 hrs
[19] = test system: Escherichia coli; experiment: Antibacterial activity against Escherichia coli NCIM 2256 incubated for 24 hrs
[20] = test system: Staphylococcus aureus; experiment: Antibacterial activity against Staphylococcus aureus ATCC 29737 incubated for 24 hrs
[21] = test system: Bacillus cereus; experiment: Antibacterial activity against Bacillus cereus ATCC 6630 incubated for 24 hrs
[22] = test system: Micrococcus luteus; experiment: Antibacterial activity against Micrococcus Luteus ATCC 398 incubated for 24 hrs

SMILES | MIC [7] [µg/mL] | MIC [8] [µg/mL] | MIC [9] [µg/mL] | MIC [10] [µg/mL] | MIC [11] [µg/mL] | MIC [12] [µg/mL] | MIC [13] [µg/mL] | MIC [14] [µg/mL] | other results
CC(C)NC(=N)c1ccc2[nH]c(-c3ccc(OCc4cn(-c5ccc(Cl)cc5)nn4)cc3)nc2c1 | – | – | – | – | – | – | – | – | MIC [1]: 8 µg/mL (≈ 16.5 µM); MIC [2]: 8 µg/mL (≈ 16.5 µM); MIC [3]: 8 µg/mL (≈ 16.5 µM); MIC [4]: 8 µg/mL (≈ 16.5 µM); MIC [5]: 8 µg/mL (≈ 16.5 µM); MIC [6]: 8 µg/mL (≈ 16.5 µM)
COc1ccc(-n2cc(COc3ccc(-c4nc5cc(C6=NCCN6)ccc5[nH]4)cc3)nn2)cc1 | – | – | – | – | – | – | – | – | MIC [1]: 8 µg/mL (≈ 17.2 µM); MIC [2]: 8 µg/mL (≈ 17.2 µM); MIC [3]: 8 µg/mL (≈ 17.2 µM); MIC [4]: 8 µg/mL (≈ 17.2 µM); MIC [5]: 8 µg/mL (≈ 17.2 µM); MIC [6]: 8 µg/mL (≈ 17.2 µM)
N=C(N)c1ccc2[nH]c(-c3ccc(OCc4cn(-c5ccccc5)nn4)cc3)nc2c1 | – | – | – | – | – | – | – | – | MIC [1]: 16 µg/mL (≈ 39.1 µM); MIC [2]: 16 µg/mL (≈ 39.1 µM); MIC [3]: 16 µg/mL (≈ 39.1 µM); MIC [4]: 16 µg/mL (≈ 39.1 µM); MIC [5]: 16 µg/mL (≈ 39.1 µM); MIC [6]: 16 µg/mL (≈ 39.1 µM)
COc1cccc(/C=N/NC(=O)c2nnn(-c3cc(C(F)(F)F)nc4c(C(F)(F)F)cccc34)c2C)c1O | 6.25 (≈ 11.6 µM) | 6.25 (≈ 11.6 µM) | 6.25 (≈ 11.6 µM) | 6.25 (≈ 11.6 µM) | 6.25 (≈ 11.6 µM) | 6.25 (≈ 11.6 µM) | 6.25 (≈ 11.6 µM) | 6.25 (≈ 11.6 µM) | –
COc1ccc(/C=N/NC(=O)c2nnn(-c3cc(C(F)(F)F)nc4c(C(F)(F)F)cccc34)c2C)c(OC)c1OC | 6.25 (≈ 10.7 µM) | 6.25 (≈ 10.7 µM) | 6.25 (≈ 10.7 µM) | 6.25 (≈ 10.7 µM) | 6.25 (≈ 10.7 µM) | 6.25 (≈ 10.7 µM) | 6.25 (≈ 10.7 µM) | 6.25 (≈ 10.7 µM) | –
CC(C)c1ccc(C2C3=C(CCCC3=O)Oc3cc4ccc(OCc5cn(-c6ccnc7cc(Cl)ccc67)nn5)cc4cc32)cc1 (configuration not stated) | – | – | – | – | – | – | – | – | MIC [15]: 16 µg/mL (≈ 25.5 µM); MIC [16]: 16 µg/mL (≈ 25.5 µM)
Cc1c(C(=O)N/N=C/c2ccccc2)nnn1-c1cc(C(F)(F)F)nc2c(C(F)(F)F)cccc12 | 6.25 (≈ 12.7 µM) | 6.25 (≈ 12.7 µM) | 6.25 (≈ 12.7 µM) | 6.25 (≈ 12.7 µM) | 6.25 (≈ 12.7 µM) | 6.25 (≈ 12.7 µM) | 6.25 (≈ 12.7 µM) | 6.25 (≈ 12.7 µM) | –
COc1ccc(/C=N/NC(=O)c2nnn(-c3cc(C(F)(F)F)nc4c(C(F)(F)F)cccc34)c2C)cc1 | 6.25 (≈ 12 µM) | 6.25 (≈ 12 µM) | 6.25 (≈ 12 µM) | 6.25 (≈ 12 µM) | 6.25 (≈ 12 µM) | 6.25 (≈ 12 µM) | 6.25 (≈ 12 µM) | 6.25 (≈ 12 µM) | –
Cc1ccsc1/C=N/NC(=O)c1nnn(-c2cc(C(F)(F)F)nc3c(C(F)(F)F)cccc23)c1C | 6.25 (≈ 12.2 µM) | 6.25 (≈ 12.2 µM) | 6.25 (≈ 12.2 µM) | 6.25 (≈ 12.2 µM) | 6.25 (≈ 12.2 µM) | 6.25 (≈ 12.2 µM) | 6.25 (≈ 12.2 µM) | 6.25 (≈ 12.2 µM) | –
Cc1ccc(C2C3=C(CC(C)(C)CC3=O)Oc3cc4ccc(OCc5cn(-c6ccnc7cc(Cl)ccc67)nn5)cc4cc32)cc1 (configuration not stated) | – | – | – | – | – | – | – | – | MIC [15]: 16 µg/mL (≈ 25.5 µM); MIC [16]: 16 µg/mL (≈ 25.5 µM)
NC[C@H]1O[C@H](O[C@H]2[C@H](O)[C@@H](O[C@H]3O[C@H](CO)[C@@H](O)[C@H](N)[C@H]3O)[C@H](N)C[C@@H]2N)[C@H](O)[C@@H](O)[C@@H]1O [KANAMYCIN] | – | – | – | – | – | – | – | – | MIC [17]: 2 µg/mL (≈ 4.13 µM); MIC [18]: 2 µg/mL (≈ 4.13 µM); MIC [19]: 2 µg/mL (≈ 4.13 µM); MIC [20]: 2 µg/mL (≈ 4.13 µM); MIC [21]: 2 µg/mL (≈ 4.13 µM); MIC [22]: 2 µg/mL (≈ 4.13 µM)
COc1ccc(-n2cc(COc3ccc(-c4nc5cc(C(=N)N)ccc5[nH]4)cc3)nn2)cc1 | – | – | – | – | – | – | – | – | MIC [1]: 16 µg/mL (≈ 36.4 µM); MIC [2]: 16 µg/mL (≈ 36.4 µM); MIC [3]: 16 µg/mL (≈ 36.4 µM); MIC [4]: 16 µg/mL (≈ 36.4 µM); MIC [5]: 16 µg/mL (≈ 36.4 µM); MIC [6]: 16 µg/mL (≈ 36.4 µM)
COc1cccc(/C=N/NC(=O)c2nnn(-c3cc(C(F)(F)F)nc4c(C(F)(F)F)cccc34)c2C)c1 | 6.25 (≈ 12 µM) | 6.25 (≈ 12 µM) | 6.25 (≈ 12 µM) | 6.25 (≈ 12 µM) | 6.25 (≈ 12 µM) | 6.25 (≈ 12 µM) | 6.25 (≈ 12 µM) | 6.25 (≈ 12 µM) | –
COc1ccc2cc(/C=N/NC(=O)c3nnn(-c4cc(C(F)(F)F)nc5c(C(F)(F)F)cccc45)c3C)ccc2c1 | 6.25 (≈ 10.9 µM) | 6.25 (≈ 10.9 µM) | 6.25 (≈ 10.9 µM) | 6.25 (≈ 10.9 µM) | 6.25 (≈ 10.9 µM) | 6.25 (≈ 10.9 µM) | 6.25 (≈ 10.9 µM) | 6.25 (≈ 10.9 µM) | –
COc1ccc(C2C3=C(CC(C)(C)CC3=O)Oc3cc4ccc(OCc5cn(-c6ccnc7cc(Cl)ccc67)nn5)cc4cc32)cc1OC (configuration not stated) | – | – | – | – | – | – | – | – | MIC [15]: 16 µg/mL (≈ 23.8 µM); MIC [16]: 16 µg/mL (≈ 23.8 µM)
c1ccc(-n2cc(COc3ccc(-c4nc5cc(C6=NCCN6)ccc5[nH]4)cc3)nn2)cc1 | – | – | – | – | – | – | – | – | MIC [1]: 8 µg/mL (≈ 18.4 µM); MIC [2]: 8 µg/mL (≈ 18.4 µM); MIC [3]: 8 µg/mL (≈ 18.4 µM); MIC [4]: 8 µg/mL (≈ 18.4 µM); MIC [5]: 8 µg/mL (≈ 18.4 µM); MIC [6]: 8 µg/mL (≈ 18.4 µM)
CC1(C)CC(=O)C2=C(C1)Oc1cc3ccc(OCc4cn(-c5ccnc6cc(Cl)ccc56)nn4)cc3cc1C2c1ccc(F)cc1 (configuration not stated) | – | – | – | – | – | – | – | – | MIC [15]: 16 µg/mL (≈ 25.4 µM); MIC [16]: 16 µg/mL (≈ 25.4 µM)
O=C1CCCC2=C1C(c1ccccc1)c1cc3cc(OCc4cn(-c5ccnc6cc(Cl)ccc56)nn4)ccc3cc1O2 (configuration not stated) | – | – | – | – | – | – | – | – | MIC [15]: 16 µg/mL (≈ 27.3 µM); MIC [16]: 16 µg/mL (≈ 27.3 µM)
